Source: publication PMC4336331, “Novel Receptor-Derived Cyclopeptides to Treat Heart Failure Caused by Anti-β1-Adrenoceptor Antibodies in a Human-Analogous Rat Model” (PLoS ONE, 2015)
Entries after “also recorded” stand apart in the source; their conditions may differ. Peptide text beside a SMILES is read from it.

Tests used:
GRK2 and GRK5 = test: qRT-PCR of cardiac GRK expression, therapy-study; type: in vivo, Lewis/CrlBR rats; details: qRT-PCR normalised to GAPDH (Fig. 4C)
[1] = tested on: IL1-β, TGF-β1 transcripts; test: qRT-PCR of cardiac profibrotic markers, therapy-study; type: in vivo, Lewis/CrlBR rats; details: qRT-PCR of apical cardiac tissues, normalised to controls (Fig. 3D)
Description: Total RNA was isolated from frozen myocardium by RNeasy mini Kit (Qiagen, Hilden, Germany). Reverse transcription of total RNA isolated from frozen myocardium was performed in 96-well plates utilising a high capacity RNA-to-cDNA master mix (Applied Biosystems, Foster City, CA). PCR reactions were conducted in the presence of the fluorescent dye Sybr-Green (Cambrex BioScience, East Rutherford, NY) and the reference-dye 6-carboxy-X-rhodamine (ROX) using an ABI PRISM sequence detection system 7700 (Applied Biosystems). All amplification products were controlled for specificity by running a melting curve analysis; results were calculated using the 2^-ΔΔCT method. The relative expression levels were derived from a standard curve and normalised to GAPDH as an endogenous control. Quantitative real-time PCR (qRT-PCR) analyses are presented as fold change compared to untreated (0.9% NaCl-injected) control hearts. […]
Fig 3 Histology of rat hearts (therapy-study). […] (B) Quantification of fibrotic scars in midventricular 2μm-sections (mvhs, mid-ventricular heart-section). […] For all parameters shown, differences between the treatment-groups were assessed by […] one way ANOVA and Dunnett`s post-hoc test; *p<0.05; **p<0.001.

[2] = tested on: brain, liver, heart, kidney, eye, and spleen; test: Histologic analysis of organs for treatment-related pathologies
Description: After the hearts all other relevant inner organs (e.g., lung, liver, spleen, kidneys, brain, and eyes) were removed, rinsed with ice-cold PBS, weighed, sectioned, and fixed for further histologic analysis.
Supplementary file pone.0117589.s003.tif: S3 Fig Histologic analysis of various organs (therapy-study, mono-treatment). Representative H&E-stained 2μm cross-sections from various organs analyzed for treatment-related pathologies. Panels (from top to bottom) show organs analyzed from immunised anti-β1EC2-positive untreated, β1EC2-CP-treated, or bisoprolol-treated rats. […] (TIF) Click here for additional data file.

[3] = tested on: anti-β1EC2-induced heart failure (β1EC2/GST-FP-immunised rats); test: Echocardiography, catheterisation and histomorphology, prevention-study; type: in vivo, Lewis/CrlBR rats; details: cardiac catheterisation, histomorphology
Description: (§1) In brief, n = 76 two months old Lewis/CrlBR rats were either s.c. immunised with 50 μg β1EC2/GST-FP, or n = 38 rats were control-injected with 0.9% NaCl (t = 0). To maintain high anti-β1EC2-titers, all immunised rats were boosted with β1EC2/GST-FP (or 0.9% NaCl) every month over 20 months as previously described. Application of the different linear or cyclic β1-AR peptides (corresponding to the primary AA-sequence of either the first (β1EC1) or the 2nd extra-cellular β1-AR loop (β1EC2)) or the β1-receptor blocker bisoprolol was initiated either 6 weeks after the 1st immunisation (i.e. 15 days after the 1st boost, prevention-study), or 8.5 months after the 1st immunisation (therapy-study).
In brief, the rats were lightly anaestetised (30 mg/kg ketamine-HCl and 5 mg/kg xylazine i.p.), shaved (chest), and placed supine on a special table. M-mode tracings were recorded at baseline (before immunisation), and subsequently every four months in the parasternal long and short axis views according to the guidelines of the American Society for Echocardiography. Pulsed-wave Doppler spectra were recorded from the apical five-chamber view and the velocity-time integral (VTI) of the transaortic flow served to calculate cardiac output (CO [ml/min] = Aortic VTI x (π [LV-outflow tract diameter/2]^2) x bpm).

[4] = Plasma half-life in vivo of 123I-(tyrosine)-labeled peptides; details: 123I-(tyrosine)-labeled peptide, 1.4 to 1.8 MBq/animal injected; central venous blood samples gamma-counted 2, 4, 6, 8, 10, 20, 30, 60 min after injection; difference n.s.
heart rate = test: Bisoprolol titration pre-experiments, heart rate; type: in vivo, Lewis/CrlBR rats
Description: as §1

Structure (SMILES) | upregulation of GRK2 and GRK5, in words (GRK2 and GRK5) | reduction of the increases in cardiac transcripts of profibrotic markers (IL1-β, TGF-β1) [1] [%] | treatment-related organ pathologies / organ-toxicity, in words ([2]; therapy-study, after 12 months of treatment, H&E-stained sections (S3 Fig.)) | development of cardiomyopathy and heart failure, in words [3] | plasma-half life in vivo (t ½) [4] [min] | decrease of heart rate (heart rate; oral dose 15 mg/kg/day derived from titration pre-experiments [5/10/15mg]) | heart rate after bisoprolol (heart rate; titration pre-experiments [5/10/15mg], 15mg oral, from 236±10 bpm, n = 5, p<0.005) [bpm] | treatment-related organ pathologies / organ-toxicity, in words ([2]; rat, in vivo)
CC(C)[C@@H]1NC(=O)[C@H](Cc2ccccc2)NC(=O)[C@H](CC(=O)O)NC(=O)[C@H](CS)NC(=O)[C@H](CS)NC(=O)[C@H](CCCCN)NC(=O)[C@@H]2CCCN2C(=O)[C@H](CC(=O)O)NC(=O)[C@H](CC(N)=O)NC(=O)[C@H](Cc2ccc(O)cc2)NC(=O)[C@H](CS)NC(=O)[C@H](CCCNC(=N)N)NC(=O)[C@H](CCCNC(=N)N)NC(=O)[C@H](C)NC(=O)[C@H](CCC(=O)O)NC(=O)[C@H](CC(=O)O)NC(=O)[C@H](CO)NC(=O)[C@H](CCC(=O)O)NC(=O)[C@H](C)NC(=O)[C@H](CCCNC(=N)N)NC(=O)[C@H](C)NC(=O)[C@H](CCC(N)=O)NC(=O)CNC(=O)[C@H](CCCNC(=N)N)NC(=O)[C@H](CC(N)=O)NC(=O)[C@H]([C@@H](C)O)NC1=O [β1EC2-CP] (cyclo(AESDEARRCYNDPKCCDFVTNRGQAR)) | reverted | ~50 | no β1EC2-CP-related pathologies were noted; also recorded: Neither treatment strategy caused detectable organ-specific toxicity | able to prevent development of cardiomyopathy and heart failure | 8.1 ± 2.8 |  |  | 
CC(C)NCC(O)COc1ccc(COCCOC(C)C)cc1 (centres unmarked) [bisoprolol, reference compound] |  | ~50 |  | able to prevent development of cardiomyopathy and heart failure |  | at least 10% | 205±9 | Neither treatment strategy caused detectable organ-specific toxicity
CC(C)[C@H](NC(=O)[C@H](Cc1ccccc1)NC(=O)[C@H](CC(=O)O)NC(=O)[C@H](CS)NC(=O)[C@H](CS)NC(=O)[C@H](CCCCN)NC(=O)[C@@H]1CCCN1C(=O)[C@H](CC(=O)O)NC(=O)[C@H](CC(N)=O)NC(=O)[C@H](Cc1ccc(O)cc1)NC(=O)[C@H](CS)NC(=O)[C@H](CCCNC(=N)N)NC(=O)[C@H](CCCNC(=N)N)NC(=O)[C@H](C)NC(=O)[C@H](CCC(=O)O)NC(=O)[C@H](CC(=O)O)NC(=O)[C@H](CO)NC(=O)[C@H](CCC(=O)O)NC(=O)[C@H](C)NC(=O)[C@H](CCCNC(=N)N)NC(=O)[C@H](C)N)C(=O)N[C@H](C(=O)N[C@@H](CC(N)=O)C(=O)N[C@@H](CCCNC(=N)N)C(=O)NCC(N)=O)[C@@H](C)O [β1EC2-Lin] (H-ARAESDEARRCYNDPKCCDFVTNRG-NH2; N-terminus and C-terminus assumed) |  |  |  |  | 3.9 ± 2.2 |  |  | 
